Measured values from patent US20100068208A1, “Degranulation inhibitor” (priority 2005, published 2010).
pEC50, pIC50: −log10 of the molar value. Read-outs that look alike come from different tables or passages of the source.

Tests used:
human TGR12 = molecular target: T1, human TGR12 (Homo sapiens, UniProt Q96LB1); assay: Intracellular calcium increasing activity in RBL2H3-TGR12 (FLIPR); format: cell-based
T1 construct: expressed in transfected cells
T1 sequence (Q96LB1 1-330): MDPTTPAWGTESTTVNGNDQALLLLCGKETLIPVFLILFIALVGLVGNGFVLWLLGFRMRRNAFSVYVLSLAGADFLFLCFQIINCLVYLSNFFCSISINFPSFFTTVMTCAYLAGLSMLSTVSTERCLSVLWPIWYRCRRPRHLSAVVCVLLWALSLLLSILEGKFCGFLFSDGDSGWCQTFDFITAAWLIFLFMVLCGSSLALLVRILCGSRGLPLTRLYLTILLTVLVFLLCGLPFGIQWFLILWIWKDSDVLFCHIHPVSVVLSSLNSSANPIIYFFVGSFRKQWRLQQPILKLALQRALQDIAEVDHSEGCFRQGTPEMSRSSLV
Procedure: RBL-2H3 (hereinafter RBL2H3) was incubated in α-MEM (Invitrogen) supplemented with 10% fetal calf serum. Vector plasmid pcDNA3.1 for animal cell expression, in which the nucleotide sequence containing the initiation codon to the termination codon of human TGR12 (DNA having the nucleotide sequence represented by SEQ ID NO: 32) was incorporated, was stably expressed in RBL-2H3 to establish human TGR12-expressed RBL-2H3 cell line (hereinafter RBL2H3-TGR12). RBL2H3-TGR12 was incubated in α-MEM (Invitrogen) supplemented with 10% fetal calf serum and 200 μg/mL of Geneticin.
The intracellular calcium increasing activity was assayed as follows. RBL2H3 and RBL2H3-TGR12 were plated in a 96-well plate at a density of 40,000 cells/well and incubated overnight. The medium was then discarded and 100 μL/well of 4 μM Fluo3-AM (Dojin Kagaku)-containing assay buffer [Hank's Balanced Salt Solution (Invitrogen), 20 mM HEPES (Dojin Kagaku) and 2.5 mM Probenecid (Sigma)] was added. The mixture was allowed to stand for an hour at 37° C. Various TGR12 (Peptide Institute, Inc.) or calcium ionophore A23187 (Wako Pure Chemical) was diluted in 0.05% CHAPS-containing assay buffer. After the cells were washed with the assay buffer, fluorescence emitted with changes in intracellular calcium was measured using FLIPR (Molecular Device). A sample, 50 μL, was added at a rate of 50 μL/sec. 10 seconds after initiation of the assay. Fluorescence was measured every 1 second during the first 60 seconds and every 6 seconds during the next 120 seconds. The highest fluorescence intensity during 3 minutes was made the maximum activity under the stimulation conditions, which was taken as an average of 3 wells. The EC50 values were calculated using Graphpad PRISM 4 (Graphpad Software).

TGR12 [1] = system: TGR12; set-up: species or system human; conditions: CHO-TGR12GFP, 200 pM [125I]-rCST14 (Y0), 4° C. 2 hours; read-out: IC50 (competitive binding, Hill plot analysis)
Procedure: [^125I]-Labeled rat cortistatin-14 (Tyr0) (hereinafter [^125I]-rCST14 (Y0)) used for the competitive binding assay was prepared as follows. After 3 nmol/6 μL of rCST14 (Y0) (Funakoshi Co.), 6 μL of 10 μg/mL lactoperoxidase (in 0.1M HEPES (pH 7, 4)), 6 μL of 0.001% H2O2 and 6 μL of 37 MBq NaI (6 μL of 15 mg/100 mL NaI was used in cold run) were mixed, the mixture was reacted at room temperature for 20 minutes. […] For fractionation, TSKgel ODS-80™ was used, 10% MeCN/0.1% TFA was used as eluant A and 60% MeCN/0.1% TFA was used as eluant B at a gradient of 0-25 (2 mins.), 25-27.5 (3 mins.) and 27.5-35 (60 mins.), respectively; and the flow rate was 1 mL/min.
CHO/dhfr^− cells (hereinafter CHO) were incubated in α-MEM (Invitrogen) supplemented with 10% fetal calf serum. […]
The binding assay using CHO-TGR12GFP was performed as follows. […] After washing 3 times with 500 μL of the assay buffer, the cells were lysed in 250 μL of 0.5N NaOH and the lysate was recovered for measurement of the radioactivity.

TGR12 [2] = format: cell-based, human; conditions: for pEC50: CHO-TGR12, read-out: EC50 in the calcium increasing effect on CHO-TGR12
Procedure: CHO/dhfr^− cells (hereinafter CHO) were incubated in α-MEM (Invitrogen) supplemented with 10% fetal calf serum. After a termination codon in the TGR12-encoding nucleotide sequence was removed, a nucleotide sequence ligated with the nucleotide sequence encoding GFP (Wako Pure Chemical) [hereinafter briefly referred to as TGR12-GFP (DNA having the nucleotide sequence represented by SEQ ID NO: 31)] was incorporated into vector plasmid pAKKO-111H (the same vector plasmid as pAKKO1.11H described in Biochim. Biophys. Acta, 1219, 251-259 (1994)) for animal cell expression, and the vector plasmid was stably expressed to establish TGR12-GFP-expressed CHO cell line (hereinafter CHO-TGR12). CHO-TGR12 was incubated in nucleic acid-free α-MEM medium (Invitrogen) containing 10% dialyzed fetal calf serum.
CHO-TGR12 was plated in a 96-well plate at a density of 30,000 cells/well. After incubation overnight, the medium was discarded and 100 μL/well of assay buffer [Hank's Balanced Salt Solution (Invitrogen), 20 mM HEPES (Dojin Chemical Laboratory) and 2.5 mM Probenecid (Sigma)] containing 4 μM Fluo3-AM (Dojin Chemical Laboratory) was added, which was then allowed to stand for an hour at 37° C. […] After the cells were washed with assay buffer, fluorescence reflecting changes in intracellular calcium levels was assayed on FLIPR (Molecular Device). Ten seconds after initiation of the assay, 50 μL of a sample was added at a rate of 50 μL/second. Fluorescence measurement was taken every 1 second during the first 60 seconds and then every 6 seconds during the next 120 seconds; the highest fluorescence intensity over a 3 minute period was taken as the maximum activity under the stimulation condition, representing the mean value of 3 wells. The EC50 values were determined using Graphpad PRISM 4 (Graphpad Software).

[3] = CHO-TGR12, 0.3 nM, highest fluorescence intensity over 3 minutes

Row | SMILES | maximum activity in the calcium increasing effect (human TGR12; RBL2H3-TGR12, 1 nM) | maximum activity in the calcium increasing effect (human TGR12; RBL2H3-TGR12, 10 nM) | maximum activity in the calcium increasing effect (human TGR12; RBL2H3-TGR12, 100 nM) | maximum activity in the calcium increasing effect (human TGR12; RBL2H3-TGR12, 1 μM) | maximum activity in the calcium increasing effect (human TGR12; RBL2H3-TGR12, 10 μM) | pIC50 (TGR12 [1]) | maximum activity in the calcium increasing effect (TGR12 [2]; [3]) | maximum activity in the calcium increasing effect (TGR12 [2]; CHO-TGR12, 3 nM) | maximum activity in the calcium increasing effect (TGR12 [2]; CHO-TGR12, 30 nM) | maximum activity in the calcium increasing effect (TGR12 [2]; CHO-TGR12, 300 nM) | maximum activity in the calcium increasing effect (TGR12 [2]; CHO-TGR12, 3000 nM) | pEC50 (TGR12 [2])
1 | CC[C@H](C)[C@H](NC(=O)CNC(=O)[C@H](CC(=O)O)NC(=O)[C@H](CO)NC(=O)[C@@H](N)Cc1c[nH]cn1)C(=O)N[C@@H](Cc1ccccc1)C(=O)N[C@H](C(=O)N[C@@H](CC(=O)O)C(=O)N[C@@H](CO)C(=O)N[C@@H](Cc1ccc(O)cc1)C(=O)N[C@@H](CO)C(=O)N[C@@H](CCCNC(=N)N)C(=O)N[C@@H](Cc1ccc(O)cc1)C(=O)N[C@@H](CCCNC(=N)N)C(=O)N[C@@H](CCCCN)C(=O)N[C@@H](CCC(N)=O)C(=O)N[C@@H](CCSC)C(=O)N[C@@H](C)C(=O)N[C@H](C(=O)N[C@@H](CCCCN)C(=O)N[C@@H](CCCCN)C(=O)N[C@@H](Cc1ccc(O)cc1)C(=O)N[C@@H](CC(C)C)C(=O)N[C@@H](C)C(=O)N[C@@H](C)C(=O)N[C@H](C(=O)N[C@@H](CC(C)C)C(N)=O)C(C)C)C(C)C)[C@@H](C)O [PACAP-27] | 40 | 29 | 5300 | 11494 | 12667 | 6.58 | 48 | 58 | 939 | 23030 | 23728 | ~7.03
2 | CC(C)C[C@H](NC(=O)[C@H](C)NC(=O)[C@H](Cc1c[nH]c2ccccc12)NC(=O)[C@H](CCCCN)NC(=O)[C@H](CC(N)=O)NC(=O)[C@H](Cc1c[nH]c2ccccc12)NC(=O)[C@H](CCCCN)NC(=O)[C@H](CCCCN)NC(=O)[C@H](CCCNC(=N)N)NC(=O)[C@@H](N)Cc1ccccc1)C(=O)N[C@@H](CO)C(=O)N[C@@H](CCCNC(=N)N)C(N)=O [PAMP-12, proadrenomedullin N-terminal 20 peptide (9-20)] | 41 | 2088 | 11110 | 12039 | 12331 | – | 255 | 1617 | 22291 | 24088 | 23743 | ~7.01
3 | CC[C@H](C)[C@H](NC(=O)[C@H](CO)NC(=O)[C@H](CC(N)=O)NC(=O)[C@H](CC(C)C)NC(=O)[C@H](Cc1ccc(O)cc1)NC(=O)[C@H](CCCCN)NC(=O)[C@H](CCCCN)NC(=O)[C@@H](NC(=O)[C@H](C)NC(=O)[C@H](CCSC)NC(=O)[C@H](CCC(N)=O)NC(=O)[C@H](CCCCN)NC(=O)[C@H](CCCNC(=N)N)NC(=O)[C@H](CC(C)C)NC(=O)[C@H](CCCNC(=N)N)NC(=O)[C@@H](NC(=O)[C@H](Cc1ccc(O)cc1)NC(=O)[C@H](CC(N)=O)NC(=O)[C@H](CC(=O)O)NC(=O)[C@@H](NC(=O)[C@H](Cc1ccccc1)NC(=O)[C@@H](NC(=O)[C@H](C)NC(=O)[C@H](CC(=O)O)NC(=O)[C@H](CO)NC(=O)[C@@H](N)Cc1c[nH]cn1)C(C)C)[C@@H](C)O)[C@@H](C)O)C(C)C)C(=O)N[C@@H](CC(C)C)C(=O)N[C@@H](CC(N)=O)C(N)=O [VIP, vasoactive intestinal polypeptide] | – | – | – | – | – | 5.69 | 56 | 60 | 16 | 11153 | 24007 | ~6.52
4 | CSCC[C@H](NC(=O)[C@H](CCCNC(=N)N)NC(=O)[C@@H](N)CC(=O)O)C(=O)N1CCC[C@H]1C(=O)N[C@H]1CSSC[C@@H](C(=O)N[C@@H](CCCCN)C(=O)O)NC(=O)[C@H](CO)NC(=O)[C@H](CO)NC(=O)[C@H](Cc2ccccc2)NC(=O)[C@H]([C@@H](C)O)NC(=O)[C@H](CCCCN)NC(=O)[C@H](Cc2c[nH]c3ccccc23)NC(=O)[C@H](Cc2ccccc2)NC(=O)[C@H](Cc2ccccc2)NC(=O)[C@H](CC(N)=O)NC(=O)[C@H](CCCNC(=N)N)NC1=O [cortistatin-17] | −2 | 33 | 1574 | 11193 | 12762 | – | 67 | 54 | 94 | 17914 | 23647 | –
